Source: patent US20260317298A1, “Cereblon Ligands and Uses Thereof” (REGENTS OF THE UNIVERSITY OF MICHIGAN, priority 2022, published 2026)
Counter-ions that a name gives are not always drawn.

Target: CRBN/DDB1 (Homo sapiens, UniProt Q96SW2)
Test: biochemical

Chain of CRBN/DDB1 (Q96SW2 whole entry): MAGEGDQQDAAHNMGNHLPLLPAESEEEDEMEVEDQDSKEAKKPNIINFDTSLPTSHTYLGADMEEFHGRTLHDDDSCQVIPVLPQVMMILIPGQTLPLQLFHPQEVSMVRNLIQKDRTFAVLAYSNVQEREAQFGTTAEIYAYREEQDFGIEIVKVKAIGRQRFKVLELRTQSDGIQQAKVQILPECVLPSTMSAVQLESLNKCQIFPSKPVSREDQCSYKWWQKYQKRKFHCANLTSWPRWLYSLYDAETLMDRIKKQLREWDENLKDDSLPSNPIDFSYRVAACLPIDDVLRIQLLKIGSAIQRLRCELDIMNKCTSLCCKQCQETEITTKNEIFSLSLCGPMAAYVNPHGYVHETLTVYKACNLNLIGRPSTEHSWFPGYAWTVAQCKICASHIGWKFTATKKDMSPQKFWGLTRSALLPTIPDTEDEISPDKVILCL
Chain of CRBN/DDB1 (Q16531 whole entry partner): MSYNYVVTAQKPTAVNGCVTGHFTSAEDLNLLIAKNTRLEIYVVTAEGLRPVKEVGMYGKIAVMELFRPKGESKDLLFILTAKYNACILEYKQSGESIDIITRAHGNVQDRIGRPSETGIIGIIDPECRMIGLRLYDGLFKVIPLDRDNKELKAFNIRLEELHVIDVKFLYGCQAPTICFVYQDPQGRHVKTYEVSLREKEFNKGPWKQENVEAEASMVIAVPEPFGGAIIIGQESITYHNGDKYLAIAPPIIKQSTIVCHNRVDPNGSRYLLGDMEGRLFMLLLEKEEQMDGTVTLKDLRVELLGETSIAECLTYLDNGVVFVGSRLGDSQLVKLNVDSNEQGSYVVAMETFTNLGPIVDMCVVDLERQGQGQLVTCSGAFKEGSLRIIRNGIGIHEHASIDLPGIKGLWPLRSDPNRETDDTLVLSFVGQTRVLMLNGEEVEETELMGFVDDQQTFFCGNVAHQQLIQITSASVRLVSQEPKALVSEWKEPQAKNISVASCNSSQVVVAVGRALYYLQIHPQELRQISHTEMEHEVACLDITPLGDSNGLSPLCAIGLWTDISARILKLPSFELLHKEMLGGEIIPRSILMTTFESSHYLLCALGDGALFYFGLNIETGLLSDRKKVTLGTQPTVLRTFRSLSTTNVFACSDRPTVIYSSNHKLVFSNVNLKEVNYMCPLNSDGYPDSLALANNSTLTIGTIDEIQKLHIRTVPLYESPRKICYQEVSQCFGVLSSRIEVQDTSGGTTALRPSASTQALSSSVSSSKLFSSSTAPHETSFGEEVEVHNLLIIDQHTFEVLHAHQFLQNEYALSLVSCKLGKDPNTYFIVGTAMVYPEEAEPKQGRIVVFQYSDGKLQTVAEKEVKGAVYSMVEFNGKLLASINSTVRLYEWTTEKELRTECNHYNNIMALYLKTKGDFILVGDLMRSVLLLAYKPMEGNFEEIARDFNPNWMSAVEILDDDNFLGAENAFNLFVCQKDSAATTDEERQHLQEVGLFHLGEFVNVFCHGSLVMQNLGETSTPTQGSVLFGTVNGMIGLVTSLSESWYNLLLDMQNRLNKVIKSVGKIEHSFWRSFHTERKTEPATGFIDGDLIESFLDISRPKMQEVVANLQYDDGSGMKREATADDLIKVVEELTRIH

| IC50 [µM] | SMILES |
| --- | --- |
| 0.5 to 5 | O=C1CC[C@H](Nc2ccc([C@]34CCNC[C@H]3C4(F)F)cc2)C(=O)N1 [Compound 4, (S)-3-((4-((1S,6S)-7,7-difluoro-3-azabicyclo[4.1.0]heptan-6-yl)phenyl)amino)piperidine-2,6-dione] |
| 0.5 to 5 | O=C1CC[C@@H](Nc2ccc([C@@]34CCNC[C@@H]3C4(F)F)cc2)C(=O)N1 (single isomer, unassigned) [Compound 2] |
| 0.5 to 5 | Cc1cc([C@]23CCNC[C@H]2C3(F)F)ccc1N[C@@H]1CCC(=O)NC1=O [Compound 9, (R)-3-((4-((1S,6S)-7,7-difluoro-3-azabicyclo[4.1.0]heptan-6-yl)-2-methylphenyl)amino)piperidine-2,6-dione] |
| 0.5 to 5 | O=C1CC[C@@H](Nc2ccc([C@]34CCNC[C@H]3C4(F)F)cc2)C(=O)N1 [Compound 3, (R)-3-((4-((1S,6S)-7,7-difluoro-3-azabicyclo[4.1.0]heptan-6-yl)phenyl)amino)piperidine-2,6-dione] |
| 0.5 to 5 | Cc1cc([C@@]23CCNC[C@@H]2C3(F)F)ccc1N[C@H]1CCC(=O)NC1=O [Compound 8, (S)-3-((4-((1R,6R)-7,7-difluoro-3-azabicyclo[4.1.0]heptan-6-yl)-2-methylphenyl)amino)piperidine-2,6-dione] |
| 0.05 to 0.5 | O=C1CCC(Nc2cc(F)c3c(c2)OCC32CCNCC2)C(=O)N1 (centres unmarked) [Compound 19, 3-((4-fluoro-2H-spiro[benzofuran-3,4′-piperidin]-6-yl)amino)piperidine-2,6-dione HCl salt] |
| 0.5 to 5 | O=C1CCC(Nc2cc3c(cc2F)C2(CCNCC2)CO3)C(=O)N1 (centres unmarked) [Compound 18, 3-((5-fluoro-2H-spiro[benzofuran-3,4′-piperidin]-6-yl)amino)piperidine-2,6-dione HCl salt] |
| 0.5 to 5 | O=C1CCC2(CC1)COc1cc(NC3CCC(=O)NC3=O)ccc12 (centres unmarked) [Compound 17, 3-((4′-oxo-2H-spiro[benzofuran-3,1′-cyclohexan]-6-yl)amino)piperidine-2,6-dione] |
| > 5 | Cc1cc([C@@]23CCNC[C@@H]2C3(F)F)ccc1N[C@@H]1CCC(=O)NC1=O [Compound 7, (R)-3-((4-((1R,6R)-7,7-difluoro-3-azabicyclo[4.1.0]heptan-6-yl)-2-methylphenyl)amino)piperidine-2,6-dione] |
| 0.5 to 5 | O=C1CC[C@@H](Oc2ccc3c(c2)OCC32CCNCC2)C(=O)N1 [Compound 5, (R)-3-((2H-spiro[benzofuran-3,4′-piperidin]-6-yl)oxy)piperidine-2,6-dione] |
| 0.5 to 5 | O=C1CCC(Nc2ccc3c(c2)COC32CCNCC2)C(=O)N1 (centres unmarked) [Compound 15, 3-((3H-spiro[isobenzofuran-1,4′-piperidin]-5-yl)amino)piperidine-2,6-dione HCO2H salt] |
| 0.5 to 5 | O=C1CC[C@H](Oc2ccc3c(c2)OCC32CCNCC2)C(=O)N1 [Compound 6, (S)-3-((2H-spiro[benzofuran-3,4′-piperidin]-6-yl)oxy)piperidine-2,6-dione] |
| > 5 | Cc1cc([C@]23CCNC[C@H]2C3(F)F)ccc1N[C@H]1CCC(=O)NC1=O [Compound 10, (S)-3-((4-((1S,6S)-7,7-difluoro-3-azabicyclo[4.1.0]heptan-6-yl)-2-methylphenyl)amino)piperidine-2,6-dione] |
| 0.5 to 5 | O=C1CCC(Nc2ccc3c(c2)OCC32CCNCC2(F)F)C(=O)N1 (centres unmarked) [Compound 16, 3-((3′,3′-difluoro-2H-spiro[benzofuran-3,4′-piperidin]-6-yl)amino)piperidine-2,6-dione] |
| 0.5 to 5 | O=C1CC[C@H](Nc2ccc([C@@]34CCNC[C@@H]3C4(F)F)cc2)C(=O)N1 (single isomer, unassigned) [Compound 1] |

| SMILES | IC50 [µM] |
| --- | --- |
| O=C1CCC(Nc2ccc3c(c2)OCC32CCNCC2)C(=O)N1 (stereo in doubt) [Compound 12, (S)-3-((2H-spiro[benzofuran-3,4′-piperidin]-6-yl)amino)piperidine-2,6-dione] | 0.5 to 5 |
| O=C1CCC(Nc2ccc3c(c2)OCC32CCNCC2)C(=O)N1 (stereo in doubt) [Compound 11, (R)-3-((2H-spiro[benzofuran-3,4′-piperidin]-6-yl)amino)piperidine-2,6-dione] | 0.05 to 0.5 |
